For eight compounds, Ki results are on record in ChEMBL document CHEMBL1127901, “Conformationally constrained analogues of dag .8. Changes in PK-C binding affinity produced by isosteric groups of the 3-O-acyl function in 2-deoxy-L-ribonolactones” (Bioorg Med Chem Lett, 1994).

Molecules are shown by their SMILES.

In the first experiment the target is Protein kinase C alpha type (Rattus norvegicus, UniProt P05696). Put plainly: Inhibition of [3H]PDBU binding to Protein kinase C alpha.
For the compound `CCCCCCCCCCCCCC(=O)O[C@@H]1CC(=O)O[C@H]1CO`, affinity was put at a Ki of 1500 nM.

The compound `CCCCCCCCCCCCCC(=O)O[C@@H]1CC(=O)O[C@H]1CCO` registered a Ki of 880 nM.

The compound `CCCCCCCCCCCCCCOC(=O)C[C@@H]1CC(=O)O[C@H]1CO` yielded an inhibitory constant (Ki) of 1470 nM.

`CCCCCCCCCCCCCCOC(=O)C[C@@H]1CC(=O)O[C@H]1CCO` registered a Ki of 18600 nM.

`CCCCCCCCCCCCCC(=O)OC[C@@H]1CC(=O)O[C@H]1CO`: affinity was put at a Ki of 3100 nM.

The target of a further experiment is Protein kinase C (PKC). Put plainly: Inhibition of [3H]PDBU binding to protein kinase C mixture. The class given is protein assay, Rattus norvegicus.
Turning to `CCCCCCCCCCCCCC(=O)O[C@@H]1CC(=O)O[C@H]1CO`, the Ki is 2500 nM.

The target of another experiment is Protein kinase C (PKC). The experiment can be described thus: Inhibition of [3H]-PDBU binding to protein kinase C mixture. It is filed as protein assay, Rattus norvegicus.
In the case of `CCCCCCCCCCCCCCOC(=O)[C@@H]1CC(=O)O[C@H]1CO`, the Ki stood at 8070 nM.

In the case of `CCCCCCCCCCCCCCO[C@@H]1CC(=O)O[C@H]1CO`, the Ki amounted to 3310 nM.

As to `CCCCCCCCCCCCCCC(=O)[C@@H]1CC(=O)O[C@H]1CO`, the Ki was determined as 50750 nM.

Broadly, the Ki is the equilibrium dissociation constant of an inhibitor or competing ligand from its target.
